Reference: the METLIN SMRT retention time set (Domingo-Almenara et al. 2019)

assay: gradient 5% acetonitrile 3 min, to 50% in 2 min, to 85% in 15 min, held 3 min, 100 µL/min; conditions: column: Zorbax Extend-C18 2.1 x 50 mm; eluents: water / acetonitrile, 0.1% formic acid
Summary of the method: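 Retention times come from adduct peaks that were picked computationally and then checked by hand. The standards, pure and pooled in mixtures of ~100 molecules, were run on a Zorbax Extend-C18 column (2.1 × 50 mm, 1.8 μm) at 100 μL/min with water and acetonitrile, each with 0.1% formic acid. Detection was by quadrupole time-of-flight mass spectrometry in positive and negative ionization mode, with a dead volume of 40 μL and a dwell volume of 900 μL.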

RP-LC retention time | SMILES
903 s | Cc1nc(-c2csc(S(=O)(=O)N3CCC(C(=O)N4CCC(C)CC4)CC3)c2)no1
575 s | COc1c(C)cc(S(=O)(=O)NC2CC(C)(C)NC(C)(C)C2)cc1C
778 s | COCCn1cc(CCNC(=O)Nc2ccc(Br)cc2)c2cccnc21
785 s | O=C(NCC(O)c1ccc(C(F)(F)F)cc1)C1(c2ccccc2)CCOCC1 (centres undefined)
702 s | O=C(Cc1cccc(Cl)c1)NC1CCN(c2cc(-c3cccs3)[nH]n2)C1 (centres undefined)
1040 s | CCCCc1ccc(NC(=O)Cn2nc3cc(C)nc(-c4ccc(OC)cc4)n3c2=O)cc1
644 s | COc1cccc(CNc2nc3ccncc3n(C(C)C)c2=O)c1OC
682 s | O=c1c(NC2CCCC2)nc2ccncc2n1Cc1ccccc1
909 s | Cc1ccc(C(=O)Nc2cnn(-c3ncncc3N3CCC(C)CC3)c2)s1
773 s | O=C(NC1CCCCC1)C(c1ccc(Cl)cc1)N1CCN(C(=O)c2ccco2)CC1 (centres undefined)
1130 s | COc1ccc(-c2noc(-c3nnn4c3COC(c3ccc(Cl)cc3)C4)n2)cc1OC (centres undefined)
1150 s | COc1ccc(-c2ncc3c(n2)CCN(S(=O)(=O)c2cc(C)ccc2C)C3)cc1
855 s | CNC(=O)c1cc(Oc2ccc(NC(=O)Nc3cc(C(C)(C)C)nn3-c3ccc4ncccc4c3)c(F)c2)ccn1
629 s | Fc1ccccc1-c1nc(-c2ccc3c(c2)ncn3CCN2CCCC2)no1
936 s | COc1cc(-c2nnc(-c3ccc(C)c(S(=O)(=O)N(C)C)c3)o2)cc(OC)c1OC
811 s | COc1ccccc1NC(=O)C1CCc2nc(N3CCCCC3)ncc2C1 (centres undefined)
741 s | O=c1n(Cc2cccc(F)c2)nc2c(S(=O)(=O)N3CCOCC3)cccn12
1120 s | Cc1ccc(Nc2nc(-c3ccc(I)cc3)cs2)cc1C
944 s | CCOC(=O)c1ccc(NC(=O)Cn2ccc3ccc(-c4nnc(C)o4)cc32)cc1
873 s | CCc1ccc(-c2cc(C(=O)N3CCCN(c4ccc(=O)n(-c5ccc(C)cc5)n4)CC3)[nH]n2)cc1
595 s | CCN1CCN(c2cc(C)c3cc(NC(=O)CC4CCCC4)ccc3n2)CC1
646 s | O=C(CSc1ccc(F)cc1)Nc1ccc2c(c1)CC(=O)N2

RP-LC retention time | SMILES
817 s | COc1ccccc1-c1noc(CCn2nc(-c3ccccc3)ccc2=O)n1
788 s | Cc1cccc(NC(=O)C(=O)NCCc2cccs2)n1
933 s | O=C(N[C@H]1C[C@@H]2C[C@H]1CN2S(=O)(=O)c1ccc2c(c1)CCC2)c1ccccc1
631 s | Cc1ccc2nc(C)cc(C(=O)NCC(C)C)c2c1
868 s | O=C(NCCc1c[nH]c2ccccc12)c1cc(-c2ccccn2)nc2ccccc12
1060 s | Cc1ccc(NC(=O)Cn2c(C)nc3c(sc4nc(-c5ccccc5)ccc43)c2=O)cc1
671 s | CCCC(=O)Nc1ccc(-n2cnc(C(=O)N3CCSCC3)c2)nc1
716 s | Cn1c(C2CCN(C(=O)c3ccc(C(F)(F)F)s3)C2)nc2cccnc21 (centres undefined)
883 s | Cc1ccc(CNC(=O)c2ccc3c(c2)N(C(=O)c2ccc(F)cc2)CC3)o1
991 s | Cn1nccc1-c1cccc(-c2noc(-c3cccc(NC(=O)c4ccco4)c3)n2)c1
934 s | O=C(Nc1nccnc1C(=O)NC1CCCC1)c1ccccc1
718 s | Cc1nc2cc(-c3noc(CNC(=O)c4ccccc4)n3)ccc2n(C)c1=O
785 s | CN(c1ccccc1)c1nc(=O)n(CC(=O)Nc2ccc3c(c2)OCCO3)c2ccccc12
1200 s | CC1=NS(=O)(=O)N(Cc2ccccc2)C=C1C(=O)OCc1ccc(Br)cc1
716 s | O=C(O)CN1CCCc2nc(-c3ccccc3)ncc2C1=O
875 s | COC(=O)c1ccccc1Nc1c(-c2ccc(C)cc2)nc2cnccn12
932 s | CCC(C)c1c(N)n(S(=O)(=O)c2ccc(C)cc2)oc1=O (centres undefined)
877 s | CCCn1cc(CCNS(=O)(=O)c2ccc(F)cc2Cl)c2cccnc21
752 s | CCC(=O)Nc1nc(-c2ccc3c(c2)N(C)C(=O)CO3)cs1
618 s | COc1cccc(CNC(=O)CN2CCc3[nH]c4c(OC)ccc(Cl)c4c(=O)c3C2)c1
635 s | O=C(NCCCn1ncccc1=O)c1ccccc1C(F)(F)F
1050 s | CCCCN1N=C(C(=O)N2CCCCCC2)S(=O)(=O)c2ccc(C)cc21

RP-LC retention time | SMILES
930 s | CCOC(=O)c1c(C)[nH]c(C(=O)N2CCCC(C(=O)NCc3ccc(OC(C)C)cc3)C2)c1C (centres undefined)
873 s | COCCOc1ccc2c(n1)CCN(C(=O)Nc1cc(C)ccc1C)C2
604 s | NC(=O)Cc1ccc(NS(=O)(=O)c2cccs2)cc1
865 s | Cc1nnc2ccc(-c3noc(-c4ccc(F)cc4)n3)cn12
770 s | CCOC(=O)c1ccc(NC(=O)c2c(OCC)cc(=O)n3c2CCCC3)cc1
652 s | Cc1c(Cl)cccc1NC(=O)c1ccc(-n2ccnc2)nn1
575 s | CCOC(=O)C1CCN(C(=O)c2cn3c(n2)CN(CC)CC3)CC1
939 s | CCOc1ccc(NC(=O)Nc2nccn(-c3ccc(F)cc3)c2=O)cc1
990 s | O=C(NCC1CCCO1)C1CCN(c2ncccc2-c2nc(-c3cccc(Cl)c3)no2)CC1 (centres undefined)
703 s | COc1ccc(Cl)cc1NC(=O)C1c2cc(OC)c(OC)cc2C(=O)N(C)C1c1cccnc1 (centres undefined)
655 s | Cc1cc(N2CCN(C(=O)Nc3ccc(Cl)cc3)CC2)nc(N2CCOCC2)n1
780 s | CCn1cnc2ccc(-c3noc(-c4ccc(F)cc4)n3)cc21
678 s | COc1ccc(-c2cc(=O)n(CCNC(=O)c3c(F)cccc3F)cn2)cc1
916 s | O=C(C1CCC1)N1CCc2sc(S(=O)(=O)NCc3ccc(Cl)cc3)cc2C1
610 s | O=C(NCCc1ccccn1)c1sc2ncccc2c1-n1cccc1
679 s | O=C(NCC1CCCO1)c1nnn(-c2ccc(F)cc2)c1-c1ccncc1 (centres undefined)
966 s | CCn1c(=O)c(N2CCC(C(=O)NCCc3c[nH]c4ccc(C)cc34)CC2)nc2ccccc21
787 s | Cc1cc(C)cc(C(=O)N2CCC3(CC2)NC(=O)c2cc(F)ccc2N3C)c1
644 s | Cc1c(N2C(=O)c3cccc4cccc(c34)C2=O)c(=O)n(-c2ccccc2)n1C
963 s | Cc1cccc(-n2c(=O)c3c(cc(C)n3C)n(CC(=O)Nc3ccc(Br)cc3F)c2=O)c1
863 s | O=C(CCCCCCSc1ccc2ccccc2c1)NO
1050 s | Fc1cc(F)cc(-c2nnc(Cc3nc(-c4ccccc4Cl)no3)o2)c1

RP-LC retention time | SMILES
703 s | CCn1ccc(C(=O)NCC(=O)N2CCCc3ccccc32)n1
599 s | O=C(NCCN1CCOCC1)c1c2c(nc3ccccc13)C(=O)N(C1CCCCC1)C2
643 s | Cc1oc2c(c1C(=O)Nc1ccc(F)c(F)c1)C1=NCCN1C=N2
866 s | COc1ccc(-c2nsc(C(=O)NCc3cccs3)c2N)cc1
677 s | O=C(Nc1ccc2c(c1)OCO2)C1CCN(c2cc(N3CCCCC3)ncn2)CC1
609 s | CSc1ccccc1NC(=O)c1ccc(-n2cccn2)nn1
640 s | CCCCN(C)C(=O)C1CCN(c2cn[nH]c(=O)c2)CC1
745 s | O=C(NCc1ccccc1F)C1CC(=O)N(c2ccc3c(c2)CCN3C(=O)C2CC2)C1 (centres undefined)
834 s | CCOc1ccccc1NC(=O)N1CCc2cn(C)c3cccc(c23)C1
787 s | COc1cccc(N2C(=O)NC3CC2(C)Oc2ccc(OC)cc23)c1 (centres undefined)
740 s | O=C1NC2(CCN(C(=O)NCc3ccc(F)cc3)CC2)Nc2cc(Cl)ccc21
1270 s | CCCOc1nc2ccccc2nc1N1CCCC(C(=O)NCc2ccc(Cl)cc2)C1 (centres undefined)
916 s | COc1ccc(OC)c(NC(=O)Nc2cccc(-c3nccnc3N3CCCC3)c2)c1
1040 s | CCOc1ccccc1-c1nn2c(-c3cccnc3)nnc2s1
1170 s | CCc1nc2cc(-c3noc(Cc4cccc(C(F)(F)F)c4)n3)ccc2o1
660 s | CS(=O)(=O)N1CC(c2noc(-c3cccnc3)n2)C2(CCOCC2)C1 (centres undefined)
854 s | CCOc1cccc(CNC(=O)c2nc(N3CCSCC3)c3cnn(C)c3n2)c1
644 s | COc1cccc(N2CCN(C(=O)c3cn4ccccc4n3)CC2)c1
753 s | Cc1ccc(C)c(CNC(=O)C2CC(=O)N(c3ccc4oc(C)nc4c3)C2)c1 (centres undefined)
909 s | CSc1cccc(NC(=O)Cn2c(Nc3cc(C)cc(C)c3)nc(C)cc2=O)c1
815 s | O=C(NCc1ccccc1Cl)C1CCN(S(=O)(=O)c2cc(C(=O)N3CCCC3)cs2)CC1

SMILES | RP-LC retention time
C[C@H]1CNCCc2ccc(Cl)cc21 | 652 s
CCn1cc(C(=O)NCc2ccccc2C(F)(F)F)c2cccnc21 | 863 s
